Data from the NIST ThermoML archive (doi:10.1016/j.tca.2012.04.032).
± gives the expanded uncertainty stated by the source.

Experiments:
[1] = Molar enthalpy of transition or fusion; conditions: Crystal; DSC
[2] = Crystal; DTA

| Molar enthalpy of transition or fusion [1] [kcal/mol] | Triple point temperature [2] [K] | Compound |
| --- | --- | --- |
| 8.92 ± 0.194 | 550.95 ± 0.7 | c1ccc(-c2nc(-c3ccccc3)c(-c3ccccc3)[nH]2)cc1 [2,4,5-triphenyl-1H-imidazole] |
| 7.73 ± 0.17 | 504.95 ± 0.7 | c1ccc(-c2nc[nH]c2-c2ccccc2)cc1 [4,5-diphenylimidazole] |
| 6.1 ± 0.136 | 487.75 ± 0.7 | c1ccc2cc3ccccc3cc2c1 [anthracene] |

| Compound | Molar enthalpy of transition or fusion [1] [kcal/mol] | Triple point temperature [2] [K] |
| --- | --- | --- |
| c1ccc(-c2ncc[nH]2)cc1 [2-phenyl-1H-imidazole] | 4.26 ± 0.108 | 419.95 ± 0.7 |
